Experimental data taken from ChEMBL document CHEMBL6087402, “Design, synthesis, and in vitro and in vivo biological evaluation of dihydroartemisinin derivatives as potent anti-cancer agents with ferroptosis-inducing and apoptosis-activating properties” (Eur J Med Chem, 2025).
Active and inactive are the calls of the source. No cut-off for these calls is given here.

Legend:
HCT-116 [1] = experiment: Induction of apoptosis in human HCT-116 cells assessed as early apoptotic cells at 3 uM incubated for 72 hrs by Annexin V-FITC/PI staining based flow cytometry (reference value: 1.55 %); format: functional
[2] = Toxicity in mouse xenografted with human HCT-116 cells assessed as body weight change at 50 mg/kg, ip administered once in every 2 days for 21 days; format: organism-based; conditions: in vivo, 504 h, time 21 day
A549 = experiment: Anti-proliferative activity against human A549 cells incubated for 72 hrs by MTT assay; format: functional, cell-based; conditions: A549, 72 h
[3] = Toxicity in BALB/c mouse assessed as decrease in body weight at 100 mg/kg, ip administered continuously for 7 days; format: organism-based; conditions: in vivo, 168 h, time 7 day
HCT-116 [4] = experiment: Induction of intracellular ROS level in human HCT-116 cells upto 3 uM incubated for 24 hrs by DCFH-DA dye based analysis; format: functional, cell-based
HCT-116 [5] = experiment: Induction of apoptosis in human HCT-116 cells assessed as increase in p38 level upto 3 uM incubated for 72 hrs by Western blot analysis; format: functional, cell-based
HCT-116 [6] = experiment: Induction of cell cycle arrest in human HCT-116 cells assessed as accumulation at S phase at 0.3 uM incubated for 72 hrs by PI staining based flow cytometry (reference value: 23.49 %); format: functional
HCT-116 [7] = experiment: Induction of apoptosis in human HCT-116 cells assessed as early apoptotic cells at 0.3 uM incubated for 72 hrs by Annexin V-FITC/PI staining based flow cytometry (reference value: 1.55 %); format: functional
HCT-116 [8] = experiment: Antitumor activity against human HCT-116 cells xenografted in mouse assessed as reduction in nuclear-cytoplasmic ratio at 50 mg/kg, ip administered once in every 2 days for 21 days by H and E staining based analysis; format: functional, organism-based; conditions: time 21.0 day
[9] = Toxicity in BALB/c mouse assessed as apparent damage in spleen at 100 mg/kg, ip administered continuously for 7 days by H and E staining based analysis; format: organism-based; conditions: in vivo, 168 h, time 7 day
HCT-116 [10] = experiment: Inhibition of cell proliferation in human HCT-116 cells at 3 uM incubated for 12 hrs by EdU assay (reference value: 48.14 %); format: functional
HCT-116 [11] = experiment: Induction of ferroptosis in human HCT-116 cells incubated for 72 hrs in presence of Fer-1 by MTT assay; format: functional, cell-based
HCT-116 [12] = experiment: Induction of apoptosis in human HCT-116 cells assessed as necrotic cells at 0.3 uM incubated for 72 hrs by Annexin V-FITC/PI staining based flow cytometry (reference value: 0.33 %); format: functional
[13] = Toxicity in BALB/c mouse assessed as apparent damage in lungs at 100 mg/kg, ip administered continuously for 7 days by H and E staining based analysis; format: organism-based; conditions: in vivo, 168 h, time 7 day
HCT-116 [14] = experiment: Induction of apoptosis in human HCT-116 cells assessed as necrotic cells at 3 uM incubated for 72 hrs by Annexin V-FITC/PI staining based flow cytometry (reference value: 0.33 %); format: functional
HCT-116 [15] = experiment: Induction of ferroptosis in human HCT-116 cells assessed as reduction in GPX4 level upto 3 uM incubated for 72 hrs by Western blot analysis; format: functional, cell-based
[16] = Toxicity in BALB/c mouse assessed as apparent damage in kidney at 100 mg/kg, ip administered continuously for 7 days by H and E staining based analysis; format: organism-based; conditions: in vivo, 168 h, time 7 day
HCT-116 [17] = experiment: Inhibition of colony formation in human HCT-116 cells incubated for 7 to 12 days by crystal violet staining based analysis; format: functional, cell-based; conditions: dose <= 3.0 µM, time 7-12 day
[18] = Selectivity index, ratio of IC50 for human L02 cells to IC50 for human HCT-116 cells; format: toxicity; conditions: L02 cells versus HCT-116 cells, read-out: Ratio IC50
HCT-116 [19] = experiment: Induction of apoptosis in human HCT-116 cells in presence of Z-VAD-FMK; format: functional, cell-based
HCT-116 [20] = experiment: Antitumor activity against human HCT-116 cells xenografted in mouse assessed as reduction in tumor cell mitotic figures at 50 mg/kg, ip administered once in every 2 days for 21 days by H and E staining based analysis; format: functional, organism-based; conditions: time 21.0 day
HCT-116 [21] = experiment: Inhibition of colony formation in human HCT-116 cells at 3 uM incubated for 7 to 12 days by crystal violet staining based analysis relative to control; format: functional; conditions: time 7-12 day
HCT-116 [22] = experiment: Induction of apoptosis in human HCT-116 cells assessed as viable cells at 0.3 uM incubated for 72 hrs by Annexin V-FITC/PI staining based flow cytometry (reference value: 97.1 %); format: functional; conditions: read-out: Activity
HCT-116 [23] = experiment: Induction of apoptosis in human HCT-116 cells assessed as increase in cleaved caspase-3 level upto 3 uM incubated for 72 hrs by Western blot analysis; format: functional, cell-based
[24] = Anti-proliferative activity against human L02 cells incubated for 72 hrs by MTT assay; format: toxicity, cell-based
HCT-116 [25] = experiment: Induction of apoptosis in human HCT-116 cells assessed as late apoptotic cells at 0.3 uM incubated for 72 hrs by Annexin V-FITC/PI staining based flow cytometry (reference value: 0.98 %); format: functional
[26] = Toxicity in BALB/c mouse assessed as apparent damage in heart at 100 mg/kg, ip administered continuously for 7 days by H and E staining based analysis; format: organism-based; conditions: in vivo, 168 h, time 7 day
[27] = Selectivity index, ratio of IC50 for human L02 cells to IC50 for human A549 cells; format: toxicity; conditions: L02 cells versus A549 cells, read-out: Ratio IC50
HCT-116 [28] = experiment: Induction of apoptosis in human HCT-116 cells assessed as late apoptotic cells at 0.03 uM incubated for 72 hrs by Annexin V-FITC/PI staining based flow cytometry (reference value: 0.98 %); format: functional
HCT-116 [29] = experiment: Anti-proliferative activity against human HCT-116 cells assessed as inhibition of STAT3 phosphorylation upto 3 uM incubated for 72 hrs by Western blot analysis; format: functional, cell-based
Bel-7402 = experiment: Anti-proliferative activity against human Bel-7402 cells incubated for 72 hrs by MTT assay; format: functional, cell-based; conditions: Bel-7402, 72 h

C[C@@H]1CC[C@H]2[C@@H](C)C(OC(=O)Nc3ccc(Cl)cc3)O[C@@H]3O[C@@]4(C)CC[C@H]1[C@]32OO4 (stereo partly specified)
Activity (HCT-116 [1]): 17% | Activity [2]: Non-toxic | IC50 (A549): 1 µM | Activity [3]: Non-toxic | Activity (HCT-116 [4]): Active | Activity (HCT-116 [5]): Active | Activity (HCT-116 [6]): 24.55% | Activity (HCT-116 [7]): 9.8% | Activity (HCT-116 [8]): Active | Activity [9]: Non-toxic | inhibition at 3 µM (HCT-116 [10]): 11.3% | Activity (HCT-116 [11]): inactive | Activity (HCT-116 [12]): 0.071% | Activity [13]: Non-toxic | Activity (HCT-116 [14]): 0.026% | Activity (HCT-116 [15]): Active | Activity [16]: Non-toxic | inhibition (HCT-116 [17]): Dose-dependent-effect | selectivity ratio [18]: 54.1 | Activity (HCT-116 [19]): inactive | Activity (HCT-116 [20]): Active | inhibition at 3 µM (HCT-116 [21]): 62.1% | viability at 0.3 µM (HCT-116 [22]): 81.9% | Activity (HCT-116 [23]): Active | IC50 at 72 h [24]: 16.8 µM | Activity (HCT-116 [25]): 8.21% | Activity [26]: Non-toxic | selectivity ratio [27]: 16.8 | Activity (HCT-116 [28]): 2.4% | inhibition (HCT-116 [29]): Active | IC50 (Bel-7402): 8.41 µM
